Laboratory results from patent US6303619A, “Meta-substituted acidic 8-phenylxanthine antagonists of A3 human adenosine receptors” (priority 1998, dated 2001).

Molecular target: T1, human A3 adenosine receptor (Homo sapiens, UniProt P0DMS8)
T1 construct: clone HS-21a contained the complete open reading frame corresponding to the human homolog of the rat A3 adenosine receptor; expressed in transfected cells; host or cells: CHO cells stably transfected with HS-21a cDNA
T1 sequence (P0DMS8 1-318): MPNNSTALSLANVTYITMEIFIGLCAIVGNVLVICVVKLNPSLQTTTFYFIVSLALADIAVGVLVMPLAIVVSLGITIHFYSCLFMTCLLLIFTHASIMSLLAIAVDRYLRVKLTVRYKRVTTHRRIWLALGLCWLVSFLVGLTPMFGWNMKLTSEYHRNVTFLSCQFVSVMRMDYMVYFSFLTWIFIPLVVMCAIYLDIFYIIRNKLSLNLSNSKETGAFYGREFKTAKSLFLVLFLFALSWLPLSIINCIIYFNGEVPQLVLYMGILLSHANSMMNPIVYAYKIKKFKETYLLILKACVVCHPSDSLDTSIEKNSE
Experiment: 125I-ABA binding to membranes of stably transfected CHO cells expressing the human A3 adenosine receptor (HS-21a)
Details: human A3
Description: Membranes were prepared from transiently transfected COS7 cells […] after transfection or from G418-selected stably transfected CHO or HEK 293 cells. Cells were harvested in 1 mM EDTA in phosphate buffered saline and centrifuged at 2000×g for 10 minutes. The cell pellet was washed once with phosphate buffered saline. The cell pellet was resuspended in 2 mL of 5 mM Tris, pH 7.6/5mM MgCl2. Membranes were prepared from the cells by freeze-thaw lysis in which the suspension was frozen in a dry ice/ethanol bath and thawed at 25° C. twice. The suspension was homogenized after adding an additional 2 mL of 5 mM Tris, pH 7.6/5 mM MgCl2, in a glass dounce homogenizer with 20 strokes. The membranes were pelleted at 40,000×g at 4° C. for 20 minutes. The membrane pellet was resuspended at a protein concentration of 1-2 mg/mL in binding assay buffer, 50 mM Tris, pH 7.6/10 mM MgCl2. Protein concentration was determined by the method of Bradford ((1976) Anal. Biochem. 72: 248-250). […] Saturation binding of [^125 I]-N^6 -aminiobenizyladenosine (125I-ABA) or [^125 I]-N^6 -2-(4-amino-3-iodophenyl)ethyladenosine (APNEA) was performed on membranes prepared from pSVLA3 transfected COS7 cells. Membranes (100 μg) were incubated in the presence of 0.2 U/mL adenosine deaminase with increasing concentrations of ^125 I-ABA in the range of 0.1-30 nM for 120 minutes at 25° C. in a total volume of 500 μl. The binding assay was terminated by rapid filtration and three washes with ice-cold 50 mM Tris, pH 7.6/10 mM MgCl2 on a Skatron cell harvester equipped with a receptor binding flitermat (SKATRON INSTRUMENTS, INC). Non-specific binding was determined on non-transfected cells. Bound radioactivity was measured by scintillation counting in Ready Safe Scintillation Cocktail (BECKMAN).
The 1.7 kb HS-21a cDNA (A3) was subcloned as a SalI-BamHl fragment into the expression vector pCMV5 (Mumby, S. M., Heukeroth, R. O., Gordon, J. I. and Gilman, A. G. (1990) Proc. Natl. Acad. Sci. USA 87, 728-732.) creating the vector pCMV5-A3. CHO or HEK 293 cells stably expressing the human HS-21 a cDNA were prepared by co-transfection of 15 μg pCMV5-A3 and 1 μg pWLneo (Stratagene) using the calcium phosphate method. Stable cell lines were also generated using EBV based mammalian expression vectors, pREP (INVITROGEN). Neomycin resistant colonies were selected in 1 mg/mL G418 (GIBCO). Stable colonies were screened for expression of HS-21a by ^125 I-ABA binding.
Membranes were prepared from stable CHO cell lines in 10 mM Hepes, pH 7.4 containing 0.1 mM benzamidine and 0.1 mM PMSF as described (Mahan, L. C. et al., (1991) Mol. Pharinacol. 40, 1-7). Pellets were resuspended in 5 mM Hepes, pH 7.4/5 mM MgCl2 /0.1 mM benzarnidine/0.1 mM PMSF at a protein concentration of 1-2 mg/mL and were incubated with adenosine deaminase (Boehringer Mannheim), 2 U/mL at 37° C. for 20 minutes. Saturation binding of ^125 I-ABA was carried out on 50 μg of membranes for 120 minutes at 25° C. in a total volume of 100 μl. The assay was terminated by rapid filtration and three washes with ice-cold binding buffer on a Skatron harvester equipped with a receptor binding filtermat (Skatron Instruments, Inc.). The specific activity of ^125 I-ABA, initially 2,200 Ci/mmol, was reduced to 100 Ci/mmol with nonradioactive I-ABA for saturation analysis. Nonspecific binding was measured in the presence of 1 uM I-ABA. The KD and Bmax values were calculated by the EBDA program (McPherson, G. A. (1983) Computer Programs for Biomedicine 17, 107-114). Competition binding of agonists and antagonists was determined with ^125 I-ABA (0.17-2.0 nM, 2000 Ci/mmol). […] Binding data were analyzed and competition curves were constructed by use of the nonlinear regression curve fitting program Graph PAD InPlot, Version 3.0 (Graph Pad Software, San Diego).

A3 antagonist affinity in words: potent and selective A3 antagonist
SMILES: CCCn1c(=O)c2[nH]c(-c3cccc(C=CC(=O)O)c3)nc2n(CCC)c1=O [BW-3911]
